Where a SMILES comes first, the peptide text is derived from it. Bridges are numbered along the chain shown (N, C = ends). [ ]: non-standard residue; d: D form. The star is where a group is joined. hPhe(3-Cl-4-CF3) = N[C@@H](CCc1ccc(C(F)(F)F)c(Cl)c1)C(=O)O; NPrPhe(4-CF3) = CCCN[C@@H](Cc1ccc(C(F)(F)F)cc1)C(=O)O; NMeGly(cPent) = CN[C@H](C(=O)O)C1CCCC1; Ac4c(3,3-Me2) = CC1(C)CC(N)(C(=O)O)C1; NMeD = CN[C@@H](CC(=O)O)C(=O)O; NMeL = CN[C@@H](CC(C)C)C(=O)O; Morpholide = C1CN(*)CCO1; Sar = CNCC(=O)O; Propyl = CCC*
Experiments:
[1] = molecular target: GDP-bound NRAS wild-type protein (Homo sapiens, UniProt P01111); experiment: Binding to NRAS by surface plasmon resonance (SPR), KD and KD ratio to KRAS
Chain of GDP-bound NRAS wild-type protein (P01111 whole entry): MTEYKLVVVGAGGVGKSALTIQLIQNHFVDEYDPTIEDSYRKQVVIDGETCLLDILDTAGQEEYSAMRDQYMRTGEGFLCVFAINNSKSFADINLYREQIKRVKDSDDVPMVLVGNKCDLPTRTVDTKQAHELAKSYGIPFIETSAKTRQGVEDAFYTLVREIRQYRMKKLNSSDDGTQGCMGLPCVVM
In short: (§1)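 Each cycle, GDP-bound biotin-Avi RAS was captured (~100–300 RU), compound concentrations were injected low to high for 75 s each at 100 µL/min, then the chip was regenerated. Buffer: HBS pH 7.4, 10 mM MgCl2, 10 µM GDP, 1 mM DTT, 4% DMSO; 30°C. KD from a 1:1 binding model.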

HRAS wild-type protein = HRAS wild-type protein (Homo sapiens, UniProt P01112); experiment: Binding to HRAS by surface plasmon resonance (SPR), KD and KD ratio to KRAS
Chain of HRAS wild-type protein (P01112 whole entry): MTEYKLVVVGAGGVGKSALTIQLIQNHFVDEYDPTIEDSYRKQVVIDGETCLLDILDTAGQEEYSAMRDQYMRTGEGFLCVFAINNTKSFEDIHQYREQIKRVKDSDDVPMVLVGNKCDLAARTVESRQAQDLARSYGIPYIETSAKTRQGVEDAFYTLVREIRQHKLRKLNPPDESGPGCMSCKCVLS
In short: as §1

[2] = test system: human lung cancer strain NCI-H441; format: cell-based
In short: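 Signal came from […] measured per well once the reagent was added. Beforehand, cells were cultured at 37°C and 5% carbon dioxide on a compound series serially diluted in dimethyl sulfoxide.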

[3] = ratio of KD value for GDP-bound NRAS wild-type protein to KD value for KRAS (SPR)
[4] = ratio of KD value for HRAS wild-type protein to KD value for KRAS (SPR)
[5] = ratio of the KD value with respect to GDP-bound NRAS wild-type protein to the KD value with respect to KRAS
[6] = ratio of the KD value with respect to HRAS wild-type protein to the KD value with respect to KRAS
[7] = ratio of KD for GDP-bound NRAS wild-type protein to KD for KRAS
[8] = ratio of KD for HRAS wild-type protein to KD for KRAS

SMILES	NRAS /KRAS [1, 3]	HRAS /KRAS (HRAS wild-type protein; [4])	IC50 [2] [nM]	NRAS /KRAS [1, 5]	HRAS /KRAS (HRAS wild-type protein; [6])	NRAS /KRAS [1, 7]	HRAS /KRAS (HRAS wild-type protein; [8])
CCCN(C)C(=O)[C@@H]1CC(=O)N(C)[C@@H](CC(F)F)C(=O)N[C@@H]([C@@H](C)CC)C(=O)N(C)CC(=O)N(C)[C@H]2C/C=C\CCN(C2=O)[C@@H](Cc2ccc(C(F)(F)F)cc2)C(=O)N(C)CC(=O)N[C@@H](CCc2cc(F)c(Cl)c(F)c2)C(=O)N2C[C@H](OCC)C[C@H]2C(=O)NC2(CC(C)(C)C2)C(=O)N(C)[C@@H](C2CCCC2)C(=O)N1C [PP1757]	AA (a compound having 20 or more is denoted as AA)	A (a compound having 10 or more and less than 20 is denoted as A)	7.1	–	–	–	–
CCO[C@@H]1C[C@H]2C(=O)NC3(CCC3)C(=O)N(C)[C@@H](C3CCCC3)C(=O)N(CCC3CCCC3)[C@H](C(=O)N3CCOCC3)CC(=O)N(C)[C@@H](CC(C)C)C(=O)N[C@@H]([C@@H](C)CC)C(=O)N(C)CC(=O)N(C)[C@H]3CCCCN(C3=O)[C@@H](Cc3ccc(C(F)(F)F)cc3)C(=O)N(C)CC(=O)N[C@@H](CCc3cc(F)c(C(F)(F)F)c(F)c3)C(=O)N2C1 [PP0651]	–	–	136	B (a compound having 3 or more and less than 10 is denoted as B)	B (a compound having 3 or more and less than 10 is denoted as B)	–	–
CCO[C@@H]1C[C@H]2C(=O)NC3(CCC3)C(=O)N(C)[C@@H](C3CCCC3)C(=O)N(C)[C@H](C(=O)N(C)C)CC(=O)N(C)[C@@H](CC)C(=O)N[C@@H]([C@@H](C)CC)C(=O)N(C)CC(=O)N(C)[C@H]3CCCCN(C3=O)[C@@H](Cc3ccc(C(F)(F)F)cc3)C(=O)N(C)CC(=O)N[C@@H](CCc3ccc(C(F)(F)F)c(C)c3)C(=O)N2C1 [PP0882]	–	–	7.1	–	–	C (A compound having a KD ratio of 0.1 or more and less than 3 is denoted as C)	B (a compound having 3 or more and less than 10 is denoted as B)
CCO[C@@H]1C[C@H]2C(=O)NC3(CC(C)(C)C3)C(=O)N(C)[C@@H](C3CCCC3)C(=O)N(C)[C@H](C(=O)N3CCCCC3)CC(=O)N(C)[C@H]3CC/C=C/c4ccc(cc4)C[C@@H](C(=O)N(C)CC(=O)N[C@@H](CCc4ccc(Cl)c(Cl)c4)C(=O)N2C1)N1CC/C=C\C[C@@H](C1=O)N(C)C(=O)CN(C)C(=O)[C@H]([C@@H](C)CC)NC3=O [PP2597]	–	–	20.1	–	–	A (a compound having 10 or more and less than 20 is denoted as A)	A (a compound having 10 or more and less than 20 is denoted as A)
CC[C@H](C)[C@@H]1NC(=O)[C@H](CC)N(C)C(=O)C[C@@H](C(=O)N(C)C)N(C)C(=O)[C@H](C2CCCC2)N(C)C(=O)C2(CCCC2)N(C)C(=O)[C@@H]2CCCN2C(=O)[C@H](CCc2cc(F)c(C(F)(F)F)c(F)c2)NC(=O)CN(C)C(=O)[C@H](Cc2ccc(C(F)(F)F)cc2)N2CC/C=C\C[C@@H](C2=O)N(C)C(=O)CN(C)C1=O [PP1805]	A (a compound having 10 or more and less than 20 is denoted as A)	A (a compound having 10 or more and less than 20 is denoted as A)	7	–	–	–	–
CCO[C@@H]1C[C@H]2C(=O)NC3(CC(F)(F)C3)C(=O)N(C)[C@@H](C3CCCC3)C(=O)N(C)C(C3CCCCC3)CC(=O)N(C)[C@@H](COC)C(=O)N[C@@H]([C@@H](C)CC)C(=O)N(C)CC(=O)N(C)[C@H]3C/C=C\CCN(C3=O)[C@@H](Cc3ccc(C(F)(F)F)cc3)C(=O)N(C)CC(=O)N[C@@H](CCc3cc(F)c(C(F)(F)F)c(F)c3)C(=O)N2C1 (stereo partly drawn) [PP1586]	A (a compound having 10 or more and less than 20 is denoted as A)	A (a compound having 10 or more and less than 20 is denoted as A)	85.5	–	–	–	–
CCO[C@@H]1C[C@H]2C(=O)NC3(CCCC3)C(=O)N(C)[C@@H](C3CCCC3)C(=O)N(C)[C@H](C(=O)N(C)C)CC(=O)N(C)[C@@H](CC)C(=O)N[C@@H]([C@@H](C)CC)C(=O)N(C)CC(=O)N(C)[C@H]3C[C@@H](C)CCN(C3=O)[C@@H](Cc3ccc(C(F)(F)F)cc3)C(=O)N(C)CC(=O)N[C@@H](CCc3cc(F)c(C(F)(F)F)c(F)c3)C(=O)N2C1 [PP1022]	–	–	17.5	–	–	C (A compound having a KD ratio of 0.1 or more and less than 3 is denoted as C)	B (a compound having 3 or more and less than 10 is denoted as B)
CCCO[C@H](C)[C@@H]1NC(=O)[C@H](CC(C)C)N(C)C(=O)C[C@@H](C(=O)N2CCOCC2)N(C)C(=O)[C@H](C2CCCC2)N(C)C(=O)C2(CC(C)(C)C2)NC(=O)[C@@H]2CCCN2C(=O)[C@H](CCc2ccc(C(F)(F)F)c(Cl)c2)NC(=O)CN(C)C(=O)[C@H](Cc2ccc(C(F)(F)F)cc2)N(CCC)C(=O)CN(C)C(=O)CN(C)C1=O [PP1965] ([NMeL]T(Propyl)[Sar][Sar][NPrPhe(4-CF3)][Sar][hPhe(3-Cl-4-CF3)]P[Ac4c(3,3-Me2)][NMeGly(cPent)][NMeD]-Morpholide; lactam N-11)	–	–	17.4	B (a compound having 3 or more and less than 10 is denoted as B)	B (a compound having 3 or more and less than 10 is denoted as B)	–	–
CC[C@H](C)[C@@H]1NC(=O)[C@H](CC2CCC2)N(C)C(=O)C[C@@H](C(=O)N(C)C)N(C)C(=O)[C@H](C2CCCC2)N(C)C(=O)C2(CC(C)(C)C2)NC(=O)[C@@H]2CCCN2C(=O)[C@H](CCc2cc(F)c(C(F)(F)F)c(F)c2)NC(=O)CN(C)C(=O)[C@H](Cc2ccc(C(F)(F)F)cc2)N2CC/C=C\C[C@@H](C2=O)N(C)C(=O)CN(C)C1=O [PP1728]	A (a compound having 10 or more and less than 20 is denoted as A)	A (a compound having 10 or more and less than 20 is denoted as A)	18.3	–	–	–	–
CCO[C@@H]1C[C@H]2C(=O)NC3(CCC3)C(=O)N(C)[C@@H](C3CCCC3)C(=O)N(C)[C@H](C(=O)N(C)C)CC(=O)N(C)[C@@H](CC)C(=O)N[C@@H]([C@@H](C)CC)C(=O)N(C)CC(=O)N(C)[C@H]3CCCCCN(C3=O)[C@@H](Cc3ccc(C(F)(F)F)cc3)C(=O)N(C)CC(=O)N[C@@H](CCc3c(F)c(F)c(C(F)(F)F)c(F)c3F)C(=O)N2C1 [PP0891]	–	–	154	–	–	B (a compound having 3 or more and less than 10 is denoted as B)	B (a compound having 3 or more and less than 10 is denoted as B)
CC[C@H](C)[C@@H]1NC(=O)[C@H](CC2CC2)N(C)C(=O)C[C@@H](C(=O)N(CC)CC)N(C)C(=O)[C@H](C2CCCC2)N(C)C(=O)C2(CC(C)(C)C2)NC(=O)[C@@H]2C[C@@H](F)CN2C(=O)[C@H](CCc2cc(F)c(C(F)(F)F)c(F)c2)NC(=O)CN(C)C(=O)[C@H](Cc2ccc(C(F)(F)F)cc2)N2CC/C=C\C[C@@H](C2=O)N(C)C(=O)CN(C)C1=O [PP1571]	A (a compound having 10 or more and less than 20 is denoted as A)	A (a compound having 10 or more and less than 20 is denoted as A)	6.8	–	–	–	–
CCC[C@H]1C(=O)N[C@@H]([C@@H](C)CC)C(=O)N(C)CC(=O)N(C)[C@H]2C/C=C\CCN(C2=O)[C@@H](Cc2ccc(C)cc2)C(=O)N(C)CC(=O)N[C@@H](CCc2ccc(C(F)(F)F)c(Cl)c2)C(=O)N2C[C@@H](C)C[C@H]2C(=O)NC2(CC(C)(C)C2)C(=O)N(C)[C@@H](C2CCCC2)C(=O)N(C)[C@H](C(=O)N(C)CC)CC(=O)N1C [PP1893]	A (a compound having 10 or more and less than 20 is denoted as A)	B (a compound having 3 or more and less than 10 is denoted as B)	18.5	–	–	–	–
CCCN(C)C(=O)[C@@H]1CC(=O)N(C)[C@@H](CC(F)F)C(=O)N[C@@H]([C@@H](C)CC)C(=O)N(C)CC(=O)N(C)[C@H]2C/C=C\CCN(C2=O)[C@@H](Cc2ccc(C(F)(F)F)cc2)C(=O)N(C)CC(=O)N[C@@H](CCc2cc(F)c(C(F)(F)F)c(F)c2)C(=O)N2C[C@H](OCC)C[C@H]2C(=O)NC2(CC(F)(F)C2)C(=O)N(C)[C@@H](C2CCCC2)C(=O)N1C [PP1733]	A (a compound having 10 or more and less than 20 is denoted as A)	A (a compound having 10 or more and less than 20 is denoted as A)	3.8	–	–	–	–
CC[C@H](C)[C@@H]1NC(=O)[C@H](CC(C)C)N(C)C(=O)C[C@@H](C(=O)N(C)C)N(C)C(=O)[C@H](C2CCCC2)N(C)C(=O)C2(CCC2)NC(=O)[C@@H]2CC(F)(F)CN2C(=O)[C@H](CCc2cc(F)c(C(F)(F)F)c(F)c2)NC(=O)CN(C)C(=O)[C@H](Cc2ccc(C(F)(F)F)cc2)N2CCCC[C@@H](C2=O)N(C)C(=O)CN(C)C1=O [PP0577]	–	–	2.4	C (A compound having a KD ratio of 0.1 or more and less than 3 is denoted as C)	C (A compound having a KD ratio of 0.1 or more and less than 3 is denoted as C)	–	–
CC[C@H](C)[C@@H]1NC(=O)[C@H](CC(C)C)N(C)C(=O)C[C@@H](C(=O)N2CCOCC2)N(C)C(=O)[C@H](C2CCCC2)N(C)C(=O)C2(CC2)NC(=O)[C@@H]2CCCN2C(=O)[C@H](CCc2cc(F)c(C(F)(F)F)c(F)c2)NC(=O)CN(C)C(=O)[C@H](Cc2ccc(C(F)(F)F)cc2)N2CCCC[C@@H](C2=O)N(C)C(=O)CN(C)C1=O [PP0559]	–	–	23.1	B (a compound having 3 or more and less than 10 is denoted as B)	B (a compound having 3 or more and less than 10 is denoted as B)	–	–
